Experimental data: US20180037568A1, “MODULATORS OF METHYL MODIFYING ENZYMES, COMPOSITIONS AND USES THEREOF” (Constellation Pharmaceuticals, Inc., priority 2015, published 2018)
pEC50, pIC50: −log10 of the molar value. Where two headings read alike, the source gives them in different places.

Assays:
EZH2 = EZH2 (Homo sapiens, UniProt Q15910); assay: EZH2 nuc BSA Brij 1.5 (IC50): rPRC2, biotinylated oligonucleosome substrate, 3H SAM FlashPlate; type: biochemical
Method: EZH2 Nuc BSA Brij 1.5 (IC50):
Assays were carried out by mixing rPRC2 together with biotinylated oligonucleosome substrates in the presence of the radio-labeled enzyme co-factor, S-adenosyl-L-methionine (^3H SAM) (Perkin Elmer) and monitoring the enzymatically mediated transfer of tritiated methyl groups from ^3H SAM to histone lysine residues. The amount of resulting tritiated methyl histone product was measured by first capturing the biotinylated oligonucleosomes in streptavidin (SAV) coated FlashPlates (Perkin Elmer), followed by a wash step to remove un-reacted ^3H SAM, and then counting on a TopCount NXT 384 well plate scintillation counter (Perkin Elmer). The final assay conditions for EZH2 were as follows: 50 mM Tris Buffer pH 8.5, 1 mM DTT, 69 μM Brij-35 detergent, 5.0 mM MgCl2, 0.1 mg/mL BSA, 0.2 μM ^3H SAM, 0.2 μM biotinylated oligonucleosomes, 3.6 μM H3K27me3 peptide and 2 nM EZH2.
Compound IC50 Measurements were Obtained as Follows:
Compounds were first dissolved in 100% DMSO as 10 mM stock solutions. Ten point dose response curves were generated by dispensing varying amounts of the 10 mM compound solution in 10 wells of the 384 well plate (Echo; Labcyte), pure DMSO was then used to backfill the wells to insure all wells have the same amount of DMSO. A 12.5 μL volume of the HMT enzyme, H3K27me3 peptide and oligonucleosome substrate in assay buffer was added to each well of the assay plate using a Multidrop Combi (ThermoFisher). Compounds were pre-incubated with the enzyme for 20 min, followed by initiation of the methyltransferase reaction by addition of 12.5 μL of ^3H SAM in assay buffer (final volume=25 μL). The final concentrations of compounds ranged from a top default concentration of 80 μM down to 0.16 μM in ten 2-fold dilution steps. Reactions were carried out for 60 minutes and quenched with 20 μL per well of 1.96 mM SAH, 50 mM Tris pH 8.5, 200 mM EDTA. Stopped reactions were transferred to SAV coated Flashplates (Perkin Elmer), incubated for 120 min, washed with a plate washer, and then read on the TopCount NXT (1.0 min/well) to measure the amount of methyl histone product formed during the reaction. The amount of methyl histone product was compared with the amount of product formed in the 0% and 100% inhibition control wells allowing the calculation of % Inhibition in the presence of the individual compounds at various concentrations. IC50's were computed using a 4 parameter fit non-linear curve fitting software package (XLFIT, part of the database package, ActivityBase (IDBS)) where the four parameters were IC50, Hill slope, pre-transitional baseline (0% INH), and post-transitional baseline (100% INH); with the latter two parameters being fixed to zero and 100%, respectively, by default.

PRC2 containing wt EZH2 = target: T1, PRC2 containing wt EZH2 (Homo sapiens, UniProt Q15910); assay: EZH2 pep BSA Brij 4.0 LowE (IC50): 3H-SAM incorporation into biotinylated H3 peptide; type: biochemical
T1 construct: made in house
T1 sequence (Q15910 whole entry): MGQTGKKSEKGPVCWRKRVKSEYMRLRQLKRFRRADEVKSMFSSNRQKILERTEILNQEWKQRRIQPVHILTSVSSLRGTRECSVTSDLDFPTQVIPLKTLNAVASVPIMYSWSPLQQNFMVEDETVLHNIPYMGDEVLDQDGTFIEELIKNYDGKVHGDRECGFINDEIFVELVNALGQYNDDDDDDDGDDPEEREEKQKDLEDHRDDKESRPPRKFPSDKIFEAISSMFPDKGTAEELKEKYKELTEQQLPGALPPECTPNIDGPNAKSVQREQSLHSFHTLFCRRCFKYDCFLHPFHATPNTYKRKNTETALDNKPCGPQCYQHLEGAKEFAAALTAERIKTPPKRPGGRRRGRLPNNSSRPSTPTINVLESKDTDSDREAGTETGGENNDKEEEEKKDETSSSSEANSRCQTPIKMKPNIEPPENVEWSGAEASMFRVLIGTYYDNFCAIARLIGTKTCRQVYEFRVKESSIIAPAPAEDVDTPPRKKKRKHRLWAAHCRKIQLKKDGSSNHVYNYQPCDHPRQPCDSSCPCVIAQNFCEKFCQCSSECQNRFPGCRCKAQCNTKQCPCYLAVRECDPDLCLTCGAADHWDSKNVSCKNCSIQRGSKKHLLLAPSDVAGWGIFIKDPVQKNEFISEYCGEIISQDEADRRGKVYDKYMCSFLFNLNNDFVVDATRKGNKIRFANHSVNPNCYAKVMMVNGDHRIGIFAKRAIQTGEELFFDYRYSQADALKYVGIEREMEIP
T1 sequence (O75530 whole entry partner): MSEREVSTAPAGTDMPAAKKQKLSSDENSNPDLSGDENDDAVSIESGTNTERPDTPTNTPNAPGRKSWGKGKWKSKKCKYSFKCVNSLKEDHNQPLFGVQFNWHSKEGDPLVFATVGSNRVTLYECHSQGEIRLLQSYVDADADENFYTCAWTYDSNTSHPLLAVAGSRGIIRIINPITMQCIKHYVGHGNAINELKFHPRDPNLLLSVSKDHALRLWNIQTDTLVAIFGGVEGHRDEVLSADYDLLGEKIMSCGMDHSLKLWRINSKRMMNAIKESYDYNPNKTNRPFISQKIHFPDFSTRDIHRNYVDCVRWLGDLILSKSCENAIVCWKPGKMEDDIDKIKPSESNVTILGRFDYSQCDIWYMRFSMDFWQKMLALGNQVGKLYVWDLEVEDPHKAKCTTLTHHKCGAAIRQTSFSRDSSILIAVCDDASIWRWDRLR
T1 sequence (Q15022 whole entry partner): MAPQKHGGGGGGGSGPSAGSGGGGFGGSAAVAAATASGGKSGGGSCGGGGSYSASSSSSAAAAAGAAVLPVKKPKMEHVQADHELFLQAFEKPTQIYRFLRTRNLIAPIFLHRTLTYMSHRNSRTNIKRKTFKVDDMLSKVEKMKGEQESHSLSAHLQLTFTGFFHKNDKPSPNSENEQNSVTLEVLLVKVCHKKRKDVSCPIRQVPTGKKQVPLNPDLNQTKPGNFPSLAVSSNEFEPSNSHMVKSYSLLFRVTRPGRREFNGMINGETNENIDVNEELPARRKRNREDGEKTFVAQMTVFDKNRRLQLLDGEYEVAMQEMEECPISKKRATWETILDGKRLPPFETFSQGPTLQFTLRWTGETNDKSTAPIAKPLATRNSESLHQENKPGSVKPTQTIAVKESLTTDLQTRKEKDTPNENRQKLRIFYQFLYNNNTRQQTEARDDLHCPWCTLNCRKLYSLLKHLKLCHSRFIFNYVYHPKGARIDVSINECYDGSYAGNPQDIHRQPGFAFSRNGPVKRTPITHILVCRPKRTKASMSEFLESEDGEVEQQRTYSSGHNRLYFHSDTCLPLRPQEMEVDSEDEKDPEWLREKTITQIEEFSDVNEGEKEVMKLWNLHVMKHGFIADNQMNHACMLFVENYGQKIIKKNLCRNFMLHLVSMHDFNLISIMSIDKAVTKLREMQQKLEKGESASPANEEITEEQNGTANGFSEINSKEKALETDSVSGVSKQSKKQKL
T1 sequence (Q09028 whole entry partner): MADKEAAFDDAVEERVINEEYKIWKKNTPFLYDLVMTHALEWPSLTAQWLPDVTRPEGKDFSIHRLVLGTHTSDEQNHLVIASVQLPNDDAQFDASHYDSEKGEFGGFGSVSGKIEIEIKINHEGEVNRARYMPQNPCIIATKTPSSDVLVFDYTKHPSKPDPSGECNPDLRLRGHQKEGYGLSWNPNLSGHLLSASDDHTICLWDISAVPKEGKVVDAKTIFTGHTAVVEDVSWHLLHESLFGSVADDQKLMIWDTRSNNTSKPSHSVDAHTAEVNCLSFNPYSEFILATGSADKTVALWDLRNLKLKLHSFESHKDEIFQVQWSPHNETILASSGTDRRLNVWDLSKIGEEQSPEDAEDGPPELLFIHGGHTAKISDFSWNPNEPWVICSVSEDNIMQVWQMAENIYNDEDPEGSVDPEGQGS
T1 sequence (Q6ZN18 whole entry partner): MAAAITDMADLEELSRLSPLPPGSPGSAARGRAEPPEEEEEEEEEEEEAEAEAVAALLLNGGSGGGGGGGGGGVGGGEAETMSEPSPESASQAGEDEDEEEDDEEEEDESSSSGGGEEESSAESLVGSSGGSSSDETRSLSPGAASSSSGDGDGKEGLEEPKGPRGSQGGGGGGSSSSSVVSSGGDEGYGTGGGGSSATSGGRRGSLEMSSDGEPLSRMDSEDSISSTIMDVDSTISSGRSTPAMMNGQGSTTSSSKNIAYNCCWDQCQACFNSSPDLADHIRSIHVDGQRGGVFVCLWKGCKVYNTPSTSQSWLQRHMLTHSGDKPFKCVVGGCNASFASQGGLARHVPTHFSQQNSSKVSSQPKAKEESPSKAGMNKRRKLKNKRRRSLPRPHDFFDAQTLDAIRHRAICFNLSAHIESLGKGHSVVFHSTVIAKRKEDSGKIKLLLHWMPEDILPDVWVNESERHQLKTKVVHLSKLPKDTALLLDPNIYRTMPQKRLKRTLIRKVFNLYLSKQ
Method in brief: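 PRC2 (wt EZH2, 20 pM) pre-incubated 120 min with compound, 0.9 μM 3H-SAM and 2 μM H3K27me3 activating peptide in pH 8.5 Tris/DTT/Brij-35/0.1% BSA, 0.8% DMSO. Biotinylated H3K27me1 peptide added (2 μM stock), 5 h at room temperature, EDTA/SAH quench, streptavidin Flashplate capture. IC50 from four-parameter fit versus full-activity and no-enzyme controls.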

H3K27me3 mark = assay: H3K27me3 Alpha Hela Assay (AlphaLISA); type: cell-based; conditions: Hela cells, read-out: EZH2 Cell H3K27me3 Alpha HeLa (EC50 K27me3)
Method in brief: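 HeLa cells at 1,000/well were treated with ten 3-fold compound doses for 72 h at 37 °C. After lysis and histone extraction, H3K27me3 was detected by AlphaLISA with anti-K27me3 acceptor beads, biotinylated anti-H3 (C-ter) antibody (3 nM final) and streptavidin donor beads (20 μg/mL final). Signals were normalized to DMSO and curve-fitted for EC50.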

[1] = EZH2 nuc BSA Brij 1.5 (IC50), 2 nM EZH2, 0.2 μM biotinylated oligonucleosomes, 0.2 μM 3H SAM, 3.6 μM H3K27me3 peptide
[2] = EZH2 pep BSA Brij 4.0 LowE (IC50), 20 pM PRC2 wt EZH2, 0.9 μM 3H-SAM, biotinylated H3 peptide substrate, 2 μM H3K27me3 activating peptide
[3] = read-out: EZH2 nuc BSA Brij 1.5 (IC50); 2 nM EZH2, 0.2 μM biotinylated oligonucleosomes, 0.2 μM 3H SAM, 3.6 μM H3K27me3 peptide
[4] = read-out: EZH2 pep BSA Brij 4.0 LowE (IC50); 20 pM PRC2 wt EZH2, 0.9 μM 3H-SAM, biotinylated H3 peptide substrate, 2 μM H3K27me3 activating peptide
[5] = 2 nM EZH2, 0.2 μM biotinylated oligonucleosomes, 0.2 μM 3H SAM, 3.6 μM H3K27me3 peptide; read-out: EZH2 nuc BSA Brij 1.5 (IC50)

Chain of EZH2 (Q15910 whole entry): as the sequence (Q15910 whole entry) above
Chain of EZH2 (O75530 whole entry partner): as the sequence (O75530 whole entry partner) above
Chain of EZH2 (Q15022 whole entry partner): as the sequence (Q15022 whole entry partner) above

Row | SMILES | pIC50 (EZH2; [1]) | pEC50 (H3K27me3 mark; 72 hrs) | pIC50 (EZH2; [3]) | pEC50 (H3K27me3 mark; Homo sapiens, HeLa, 72 h) | further results
1 | COc1cc(C)[nH]c(=O)c1CNC(=O)c1c(C)n(C(C)C2CCNC(C(F)(F)F)C2)c2ccccc12 (single isomer, unassigned) [Compound 14, N-((4-methoxy-6-methyl-2-oxo-1,2-dihydropyridin-3-yl)methyl)-2-methyl-1-(1-(2-(trifluoromethyl)piperidin-4-yl)ethyl)-1H-indole-3-carboxamide] | > 7.00 | > 6.40 |  |  | pIC50 (PRC2 containing wt EZH2; [2]): > 7.00
2 | COc1cc(C)[nH]c(=O)c1CNC(=O)c1c(C)n(C(C)C2CCN(C)C(C(F)(F)F)C2)c2ccccc12 (single isomer, unassigned) [Compound 15, N-((4-methoxy-6-methyl-2-oxo-1,2-dihydropyridin-3-yl)methyl)-2-methyl-1-(1-(1-methyl-2-(trifluoromethyl)piperidin-4-yl)ethyl)-1H-indole-3-carboxamide] |  | > 6.40 | > 7.00 |  | pIC50 (PRC2 containing wt EZH2; [2]): > 7.00
3 | COc1cc(C)[nH]c(=O)c1CNC(=O)c1c(C)n(C(C)C2CCNC(C(F)(F)F)C2)c2ccccc12 (single isomer, unassigned) [Compound 18, N-((4-methoxy-6-methyl-2-oxo-1,2-dihydropyridin-3-yl)methyl)-2-methyl-1-(1-(2-(trifluoromethyl)piperidin-4-yl)ethyl)-1H-indole-3-carboxamide] | > 7.00 | > 6.40 |  |  | pIC50 (PRC2 containing wt EZH2; [4]): > 7.00
4 | COc1cc(C)[nH]c(=O)c1CNC(=O)c1c(C)n(C(C)C2CCN(C)C(C(F)(F)F)C2)c2ccccc12 (single isomer, unassigned) [Compound 24, N-((4-methoxy-6-methyl-2-oxo-1,2-dihydropyridin-3-yl)methyl)-2-methyl-1-(1-(1-methyl-2-(trifluoromethyl)piperidin-4-yl)ethyl)-1H-indole-3-carboxamide] |  | > 6.40 | > 7.00 |  | pIC50 (PRC2 containing wt EZH2; [4]): > 7.00
5 | COc1cc(C)[nH]c(=O)c1CNC(=O)c1c(C)n(C(C)C2CCNC(c3ccc(F)cc3)C2)c2ccccc12 (single isomer, unassigned) [Compound 31, 1-(1-(2-(4-fluorophenyl)piperidin-4-yl)ethyl)-N-((4-methoxy-6-methyl-2-oxo-1,2-dihydropyridin-3-yl)methyl)-2-methyl-1H-indole-3-carboxamide] |  | 5.70 to 6.40 |  |  | pIC50 (EZH2; [5]): > 7.00; pIC50 (PRC2 containing wt EZH2; 20 pM PRC2 wt EZH2, 0.9 μM 3H-SAM, biotinylated H3 peptide substrate, 2 μM H3K27me3 activating peptide; read-out: EZH2 pep BSA Brij 4.0 LowE (IC50)): > 7.00
6 | COc1cc(C)[nH]c(=O)c1CNC(=O)c1c(C)n(C(C)C2CCNC(c3ccc(F)cc3)C2)c2ccccc12 (single isomer, unassigned) [Compound 32, 1-(1-(2-(4-fluorophenyl)piperidin-4-yl)ethyl)-N-((4-methoxy-6-methyl-2-oxo-1,2-dihydropyridin-3-yl)methyl)-2-methyl-1H-indole-3-carboxamide] |  | < 5.70 |  |  | pIC50 (EZH2; [5]): > 7.00
7 | COc1cc(C)[nH]c(=O)c1CNC(=O)c1c(C)n(C(C)C2CCNC(C(F)F)C2)c2ccccc12 (single isomer, unassigned) [Compound 36, 1-(1-(2-(difluoromethyl)piperidin-4-yl)ethyl)-N-((4-methoxy-6-methyl-2-oxo-1,2-dihydropyridin-3-yl)methyl)-2-methyl-1H-indole-3-carboxamide] | > 7.00 | < 5.70 |  |  | 
8 | COc1cc(C)[nH]c(=O)c1CNC(=O)c1c(C)n(C(C)C2CCNC(C(F)F)C2)c2ccccc12 (single isomer, unassigned) [Compound 37, 1-(1-(2-(difluoromethyl)piperidin-4-yl)ethyl)-N-((4-methoxy-6-methyl-2-oxo-1,2-dihydropyridin-3-yl)methyl)-2-methyl-1H-indole-3-carboxamide] |  | 5.70 to 6.40 | > 7.00 |  | 
9 | COc1cc(C)[nH]c(=O)c1CNC(=O)c1c(C)n(C(C)C2CCN(CC3CC3)C(C(F)(F)F)C2)c2ccccc12 (single isomer, unassigned) [Compound 38, 1-(1-(1-(cyclopropylmethyl)-2-(trifluoromethyl)piperidin-4-yl)ethyl)-N-((4-methoxy-6-methyl-2-oxo-1,2-dihydropyridin-3-yl)methyl)-2-methyl-1H-indole-3-carboxamide] | > 7.00 |  |  | < 5.70 | 
10 | COc1cc(C)[nH]c(=O)c1CNC(=O)c1c(C)n(C(C)C2CCN(CC3CC3)C(C(F)(F)F)C2)c2ccccc12 (single isomer, unassigned) [Compound 39, 1-(1-(1-(cyclopropylmethyl)-2-(trifluoromethyl)piperidin-4-yl)ethyl)-N-((4-methoxy-6-methyl-2-oxo-1,2-dihydropyridin-3-yl)methyl)-2-methyl-1H-indole-3-carboxamide] |  | < 5.70 | > 7.00 |  | 
11 | COc1cc(C)[nH]c(=O)c1CNC(=O)c1c(C)n(C(C)C2CCN(CC(F)F)C(C)C2)c2ccccc12 (single isomer, unassigned) [Compound 41, 1-(1-(1-(2,2-difluoroethyl)-2-methylpiperidin-4-yl)ethyl)-N-((4-methoxy-6-methyl-2-oxo-1,2-dihydropyridin-3-yl)methyl)-2-methyl-1H-indole-3-carboxamide] |  | > 6.40 | > 7.00 |  | 
12 | COc1cc(C)[nH]c(=O)c1CNC(=O)c1c(C)n(C(C)C2CCN(CC(F)(F)F)C(C)C2)c2ccccc12 (single isomer, unassigned) [Compound 42, N-((4-methoxy-6-methyl-2-oxo-1,2-dihydropyridin-3-yl)methyl)-2-methyl-1-(1-(2-methyl-1-(2,2,2-trifluoroethyl)piperidin-4-yl)ethyl)-1H-indole-3-carboxamide] | > 7.00 |  |  | 5.70 to 6.40 | 
13 | COc1cc(C)[nH]c(=O)c1CNC(=O)c1c(C)n(C(C)C2CCNC3CCCCC32)c2ccccc12 (centres unmarked) [Compound 4, 1-(1-(decahydroquinolin-4-yl)ethyl)-N-((4-methoxy-6-methyl-2-oxo-1,2-dihydropyridin-3-yl)methyl)-2-methyl-1H-indole-3-carboxamide] | > 7.00 |  |  | < 5.70 | 
14 | COc1cc(C)[nH]c(=O)c1CNC(=O)c1c(C)n(C(C)C2CCN(C)C(=O)C2)c2ccccc12 (centres unmarked) [Compound 11, N-((4-methoxy-6-methyl-2-oxo-1,2-dihydropyridin-3-yl)methyl)-2-methyl-1-(1-(1-methyl-2-oxopiperidin-4-yl)ethyl)-1H-indole-3-carboxamide] | > 7.00 |  |  | < 5.70 | 
15 | COc1cc(C)[nH]c(=O)c1CNC(=O)c1c(C)n(C(C)C2CCNCC2C(F)(F)F)c2ccccc12 (centres unmarked) [Compound 19, N-((4-methoxy-6-methyl-2-oxo-1,2-dihydropyridin-3-yl)methyl)-2-methyl-1-(1-(3-(trifluoromethyl)piperidin-4-yl)ethyl)-1H-indole-3-carboxamide] | > 7.00 |  |  | < 5.70 | 
